Data published in ChEMBL document CHEMBL1795328, “Synthesis of novel triplet drugs with 1,3,5-trioxazatriquinane skeletons and their pharmacologies. 1: Synthesis of triplet drugs with morphinan skeletons” (Bioorg Med Chem Lett, 2011).

Assays:
[1] = Displacement of [3H]-NTI from delta opioid receptor in guinea pig forebrain homogenates; type: tissue-based, Cavia porcellus, Brain
[2] = target: Kappa-type opioid receptor (Cavia porcellus, UniProt P41144); experiment: Displacement of [3H]-U69593 from kappa opioid receptor in guinea pig cerebellum homogenates; type: tissue-based
Kappa-type opioid receptor, sequence (P41144 whole entry): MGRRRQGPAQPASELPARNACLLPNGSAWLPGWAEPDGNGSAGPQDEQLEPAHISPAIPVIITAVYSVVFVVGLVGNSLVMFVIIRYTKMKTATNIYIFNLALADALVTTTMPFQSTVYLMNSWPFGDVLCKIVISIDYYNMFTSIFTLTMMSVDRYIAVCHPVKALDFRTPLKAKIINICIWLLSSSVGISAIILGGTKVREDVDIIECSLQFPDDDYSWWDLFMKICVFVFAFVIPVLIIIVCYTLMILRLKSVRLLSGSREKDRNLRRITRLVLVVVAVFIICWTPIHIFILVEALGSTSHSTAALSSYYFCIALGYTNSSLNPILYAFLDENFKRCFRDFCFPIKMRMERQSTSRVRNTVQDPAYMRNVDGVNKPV

Cavia porcellus = species on record: Cavia porcellus; experiment: Selectivity ratio of Ki for delta opioid receptor in guinea pig forebrain homogenates to Ki for mu opioid receptor in guinea pig forebrain homogenates; type: tissue-based
Mu-type opioid receptor = Mu-type opioid receptor (Cavia porcellus, UniProt P97266); experiment: Displacement of [3H]-DAMGO from mu opioid receptor in guinea pig forebrain homogenates; type: tissue-based, Brain
Mu-type opioid receptor, sequence (P97266 whole entry): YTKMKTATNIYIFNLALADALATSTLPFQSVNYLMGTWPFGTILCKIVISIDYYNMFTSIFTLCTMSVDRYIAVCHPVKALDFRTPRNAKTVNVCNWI

Mus musculus [3] = experiment: Ratio of morphine ED50 to compound ED50 for antinociceptive activity in sc dosed mouse by acetic acid writhing test; type: functional
Mus musculus [4] = experiment: Antinociceptive activity in sc dosed mouse by acetic acid writhing test; type: functional

Structure (SMILES): CN1CC[C@]23c4c5ccc(O)c4O[C@H]2[C@]2(CC[C@@]3(O)[C@H]1C5)O[C@@H]1N3[C@H]2O[C@]2(CC[C@@]4(O)[C@H]5Cc6ccc(O)c7c6[C@@]4(CCN5CC4CC4)[C@H]2O7)[C@@H]3O[C@]12CC[C@@]1(O)[C@H]3Cc4ccc(O)c5c4[C@@]1(CCN3CC1CC1)[C@H]2O5
- Ki [1]: 24.6 nM
- Ki [2]: 10.1 nM
- Ratio Ki (Cavia porcellus): 6.2
- Ki (Mu-type opioid receptor): 3.98 nM

Structure (SMILES): O=C1CC[C@@]2(O)[C@H]3Cc4ccc(O)c5c4[C@@]2(CCN3CC2CC2)[C@H]1O5 [NALTREXONE]
- Ki [1]: 20.7 nM

Structure (SMILES): CN1CC[C@]23c4c5ccc(O)c4O[C@H]2[C@]2(CC[C@@]3(O)[C@H]1C5)O[C@@H]1N3[C@H]2O[C@]2(CC[C@@]4(O)[C@H]5Cc6ccc(O)c7c6[C@@]4(CCN5C)[C@H]2O7)[C@@H]3O[C@]12CC[C@@]1(O)[C@H]3Cc4ccc(O)c5c4[C@@]1(CCN3C)[C@H]2O5
- Ki [1]: 38.6 nM
- Ki [2]: 16.1 nM
- Ratio ED50 (Mus musculus [3]): 16
- Ratio Ki (Cavia porcellus): 36.8
- Ki (Mu-type opioid receptor): 1.05 nM
- Activity (Mus musculus [4]): Dose-dependent effect
- ED50 (Mus musculus [4]): 0.037 mg/kg

Structure (SMILES): Oc1ccc2c3c1O[C@H]1[C@]4(CC[C@H]5[C@@H](C2)N(CC2CC2)CC[C@@]351)O[C@@H]1N2[C@H]4O[C@]3(CC[C@H]4[C@H]5Cc6ccc(O)c7c6[C@@]4(CCN5CC4CC4)[C@H]3O7)[C@@H]2O[C@]12CC[C@H]1[C@H]3Cc4ccc(O)c5c4[C@@]1(CCN3CC1CC1)[C@H]2O5
- Ki [1]: 53.7 nM
- Ki [2]: 43.2 nM
- Ratio Ki (Cavia porcellus): 2.4
- Ki (Mu-type opioid receptor): 22.3 nM

Structure (SMILES): CN1CC[C@]23c4c5ccc(O)c4O[C@H]2[C@]2(CC[C@@]3(O)[C@H]1C5)O[C@@H]1N3[C@H]2O[C@]2(CC[C@@]4(O)[C@H]5Cc6ccc(O)c7c6[C@@]4(CCN5CC4CC4)[C@H]2O7)[C@@H]3O[C@]12CC[C@@]1(O)[C@H]3Cc4ccc(O)c5c4[C@@]1(CCN3C)[C@H]2O5
- Ki [1]: 23.5 nM
- Ki [2]: 10.9 nM
- Ratio Ki (Cavia porcellus): 12.7
- Ki (Mu-type opioid receptor): 1.85 nM

Structure (SMILES): Oc1ccc2c3c1O[C@H]1[C@]4(CC[C@@]5(O)[C@@H](C2)N(CC2CC2)CC[C@]315)O[C@@H]1N2[C@H]4O[C@]3(CC[C@@]4(O)[C@H]5Cc6ccc(O)c7c6[C@@]4(CCN5CC4CC4)[C@H]3O7)[C@@H]2O[C@]12CC[C@@]1(O)[C@H]3Cc4ccc(O)c5c4[C@@]1(CCN3CC1CC1)[C@H]2O5
- Ki [1]: 122 nM
- Ki [2]: 22.1 nM
- Ratio Ki (Cavia porcellus): 5.5
- Ki (Mu-type opioid receptor): 22.2 nM
